Results as given in PMC11003479, “Inhibition of pathogenic bacterial carbonic anhydrases by monothiocarbamates” (Journal of Enzyme Inhibition and Medicinal Chemistry, 2023).

How the values were obtained:
[1] = molecular target: T1, α-EfCA (Enterococcus faecium, UniProt Q3XYE8); test: biochemical; design: stopped-flow CO2 hydration assay of recombinant carbonic anhydrases, pH 7.4 (alpha) or 8.3 (gamma), KI
T1 construct: gene HMPREF0351_11360
T1 sequence (Q3XYE8 1-234): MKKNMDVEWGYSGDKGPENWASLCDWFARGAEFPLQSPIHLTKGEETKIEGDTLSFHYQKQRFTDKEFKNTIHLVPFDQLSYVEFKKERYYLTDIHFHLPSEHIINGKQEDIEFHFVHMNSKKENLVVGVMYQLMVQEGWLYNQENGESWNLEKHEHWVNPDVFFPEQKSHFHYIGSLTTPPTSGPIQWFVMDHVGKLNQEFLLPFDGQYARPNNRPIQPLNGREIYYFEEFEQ
Method: (§1) The experiments were performed at the pH of 7.4 for the α-class enzymes, and the pH of 8.3 for the γ-CA, as reported earlier[15]^,[16]. The bacterial enzymes were recombinant proteins obtained as reported earlier by our group[15]^,[16].

[2] = molecular target: T2, α-NgCA (Neisseria gonorrhoeae, UniProt Q50940); test: biochemical; design: stopped-flow CO2 hydration assay of recombinant carbonic anhydrases, pH 7.4 (alpha) or 8.3 (gamma), KI
T2 construct: gene cah
T2 sequence (Q50940 27-252): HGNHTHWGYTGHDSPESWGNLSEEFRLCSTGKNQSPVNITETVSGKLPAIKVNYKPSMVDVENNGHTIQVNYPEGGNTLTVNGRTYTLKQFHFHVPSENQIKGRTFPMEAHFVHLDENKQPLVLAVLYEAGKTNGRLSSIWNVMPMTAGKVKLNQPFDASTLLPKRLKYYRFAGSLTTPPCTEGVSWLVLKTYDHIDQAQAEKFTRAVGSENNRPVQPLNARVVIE
Method: as §1

[3] = molecular target: γ-EfCA; test: stopped-flow CO2 hydrase assay; type: biochemical, Enterococcus faecium; conditions: CO2 hydration, pH 8.3
[4] = molecular target: T1, α-EfCA; test: stopped-flow CO2 hydrase assay; type: biochemical
[5] = molecular target: T2, α-NgCA; test: stopped-flow CO2 hydrase assay; type: biochemical

| Structure (SMILES) | Ki [1] [nM] | Ki [2] [nM] | Ki [3] [µM] | Ki [4] [µM] | Ki [5] [µM] |
| --- | --- | --- | --- | --- | --- |
| O=C(S)N1CCOCC1 [compound 1] | 740 | 761 | – | – | – |
| CC(C)CN(CC(C)C)C(=O)S [compound 2] | 665 | 890 | – | – | – |
| CCCCN(CCCC)C(=O)S [compound 3] | 517 | 825 | – | – | – |
| CCCN(CCC)C(=O)S [compound 4] | 550 | 799 | – | – | – |
| O=C(CN1CCN(C(=O)S)CC1)NC1CCCCC1 [compound 5, MTC 5] | – | – | 0.417 | 0.29 | 0.395 |
| CN1CCN(C(=O)S)CC1 [compound 6] | 959 | 729 | – | – | – |
| CCOC(=O)CN(C)C(=O)S [compound 7, MTC 7] | – | – | 0.279 | – | – |
| CCOC(=O)CN(C)C(=O)S [compound 7] | 788 | 919 | – | – | – |
| CN(Cc1ccccc1)C(=O)S [compound 8] | 686 | 843 | – | – | – |
| O=C(S)NCCc1ccccc1 [compound 9, MTC 9] | – | – | – | 0.428 | – |
| O=C(S)NCCc1ccccc1 [compound 9] | – | 648 | – | – | – |
| CCCCN(CC)C(=O)S [compound 10] | 806 | 766 | – | – | – |
| O=C(S)N1CCN(C(=O)S)CC1 [compound 11] | 915 | 630 | – | – | – |
| COc1ccc(CCNC(=O)S)cc1OC [compound 12, MTC 12] | – | – | 0.358 | 0.357 | 0.512 |
| O=C(S)N1CCN(c2ccc(C(F)(F)F)cc2)CC1 [compound 13, MTC 13] | – | – | 0.334 | 0.477 | 0.394 |
| O=C(S)N1CCN(c2ccc(F)cc2)CC1 [compound 14, MTC 14] | – | – | 0.149 | 0.195 | 0.417 |
| O=C(S)N1CCN(c2cccc(Cl)c2)CC1 [compound 15, MTC 15] | – | – | 0.214 | 0.3 | 0.367 |
